Laboratory results published in article PMC5515969, “Effects of 31 FDA approved small-molecule kinase inhibitors on isolated rat liver mitochondria” (Archives of Toxicology, 2016).
Where two headings read alike, the source gives them in different places.

Experiments:
[1] = tested on: isolated rat liver mitochondria; experiment: Mitochondrial oxygen consumption (glutamate/malate or succinate driven, state 4 and state 3); type: biochemical; conditions: DMSO treated samples set as 1; as to State 3 respiration driven by succinate at 10XCmax: key: 0 indicates that the drug had no effects (negative); as to State 3 respiration driven by succinate at 1XCmax: key: 0 indicates that the drug had no effects (negative)
Method in brief: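 Rat liver mitochondria (1 mg/ml protein) exposed 5 min to kinase inhibitors in 0.1% DMSO, then O2 consumption measured by Clark-type electrode with glutamate/malate or succinate (state 4), ADP added after 3 min (state 3). Rates normalized to 0.1% DMSO controls set to 1.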

[2] = tested on: RCC I; experiment: RCC I activity in submitochondrial particles; type: biochemical, rat; set-up: key to RCC I at 10XCmax / RCC I at 100XCmax / RCC I at 50XCmax / RCC I at 30XCmax / RCC I at 20XCmax: activity relative to DMSO-treated controls (control set as 1 = 100%); conditions: 10XCmax; DMSO treated samples set as 1
Method in brief: (§1)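 Inhibitors preincubated 15 min with submitochondrial particles (1 mg/ml) before activity readout. RCC I (rotenone-sensitive fraction) and I/V: A340, and RCC II: A600, each every 1 min for 6 min; RCC III/IV: A550 every 10 s for 2 min. Activities relative to DMSO control set as 1.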

[3] = target: T1, RCC II (Rattus norvegicus, UniProt P21913+Q641Z9+Q6PCT8+Q920L2); experiment: RCC II activity in submitochondrial particles; type: biochemical; set-up: key: activity relative to DMSO-treated controls (control set as 1 = 100%); conditions: DMSO treated samples set as 1
T1 construct: Submitochondrial particles were prepared by subjecting the intact mitochondria to three successive freeze–thaw cycles; from tissue; host or cells: rat liver mitochondria, used as submitochondrial particles
T1 sequence (Q920L2 35-656): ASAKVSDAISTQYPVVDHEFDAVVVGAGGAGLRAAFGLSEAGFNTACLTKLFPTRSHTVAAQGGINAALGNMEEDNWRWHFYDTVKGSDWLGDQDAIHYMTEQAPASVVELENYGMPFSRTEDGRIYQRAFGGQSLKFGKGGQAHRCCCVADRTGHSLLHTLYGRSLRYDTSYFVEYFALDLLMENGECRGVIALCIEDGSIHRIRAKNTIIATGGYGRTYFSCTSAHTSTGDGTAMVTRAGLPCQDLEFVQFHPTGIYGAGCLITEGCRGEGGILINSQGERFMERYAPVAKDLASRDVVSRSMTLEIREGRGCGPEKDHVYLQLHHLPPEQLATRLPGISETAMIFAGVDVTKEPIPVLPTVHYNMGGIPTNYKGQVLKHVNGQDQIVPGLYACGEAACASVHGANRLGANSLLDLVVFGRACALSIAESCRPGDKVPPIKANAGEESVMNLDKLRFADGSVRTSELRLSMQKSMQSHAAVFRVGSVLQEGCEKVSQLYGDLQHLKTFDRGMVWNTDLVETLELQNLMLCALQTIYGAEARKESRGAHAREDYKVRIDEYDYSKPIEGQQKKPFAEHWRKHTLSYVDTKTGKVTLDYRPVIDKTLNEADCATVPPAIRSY
T1 sequence (P21913 31-282): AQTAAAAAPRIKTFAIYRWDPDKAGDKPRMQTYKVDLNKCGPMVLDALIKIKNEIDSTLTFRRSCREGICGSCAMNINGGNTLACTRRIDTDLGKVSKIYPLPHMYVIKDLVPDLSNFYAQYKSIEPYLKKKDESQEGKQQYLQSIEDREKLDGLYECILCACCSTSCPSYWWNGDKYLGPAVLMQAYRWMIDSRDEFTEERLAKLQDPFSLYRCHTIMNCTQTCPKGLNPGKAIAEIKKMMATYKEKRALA
T1 sequence (Q641Z9 1-169): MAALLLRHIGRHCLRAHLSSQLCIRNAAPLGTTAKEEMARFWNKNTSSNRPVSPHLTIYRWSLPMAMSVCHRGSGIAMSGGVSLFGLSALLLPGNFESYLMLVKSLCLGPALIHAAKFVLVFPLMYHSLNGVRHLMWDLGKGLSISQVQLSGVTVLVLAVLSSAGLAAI
T1 sequence (Q6PCT8 57-159): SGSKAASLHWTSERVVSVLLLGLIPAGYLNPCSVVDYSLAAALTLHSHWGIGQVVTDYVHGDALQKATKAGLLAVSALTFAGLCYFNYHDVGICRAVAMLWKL
Method in brief: as §1

[4] = tested on: RCC IV; experiment: RCC IV activity in submitochondrial particles; type: biochemical, rat; set-up: key to RCC IV at 50XCmax / RCC IV at 100XCmax: activity relative to DMSO-treated controls (control set as 1 = 100%); conditions: 50XCmax; DMSO treated samples set as 1; in %
Method in brief: as §1

[5] = tested on: RCC V; experiment: RCC V activity in submitochondrial particles; type: biochemical, rat; conditions: DMSO treated samples set as 1; as to RCC V at 5XCmax: key: 0 indicates that the drug had no effects (negative)
Method in brief: as §1

[6] = tested on: isolated rat liver mitochondria; experiment: Mitochondrial inner membrane potential (MMP), Rhodamine 123; type: biochemical; conditions: difference in signal between KI and DMSO treated samples at the end of experiments
Source text: Fig. 3 KI effects on mitochondrial inner membrane potential (MMP). […] In a, c, data are means and standard derivations from three separate experiments. *p < 0.05 as compared to DMSO-treated samples at the end of experiments. In b, data are means of two independent experiments

[7] = tested on: isolated rat liver mitochondria; experiment: Mitochondrial swelling (absorbance at 535 nm); type: biochemical; conditions: difference in signal between KI and DMSO treated samples at the end of experiments; as to Swelling 5XCmax: key: 0 indicates that the drug had no effects (negative)
[8] = tested on: isolated rat liver mitochondria; conditions: positive control alamethicin treated samples
[9] = read-out: Cmax at µM; human therapeutic maximal blood concentration; ref product labeling; cited from earlier work
[10] = cited from earlier work

O=C(c1ccc(F)c(F)c1Nc1ccc(I)cc1F)N1CC(O)([C@@H]2CCCCN2)C1 [Cobimetinib]
State 3 respiration driven by glutamate/malate at 1XCmax ([1]; 1XCmax): 0 | State 3 respiration driven by succinate at 1XCmax ([1]; 1XCmax): 0 | State 4 respiration driven by glutamate/malate at 1XCmax ([1]; 1XCmax): 0 | State 4 respiration driven by succinate at 1XCmax ([1]; 1XCmax): 0 | State 3 respiration driven by glutamate/malate at 2.5XCmax ([1]; 2.5XCmax): 0 | State 3 respiration driven by succinate at 2.5XCmax ([1]; 2.5XCmax): 0 | State 4 respiration driven by glutamate/malate at 2.5XCmax ([1]; 2.5XCmax): 0 | State 4 respiration driven by succinate at 2.5XCmax ([1]; 2.5XCmax): 0 | State 3 respiration driven by glutamate/malate at 5XCmax ([1]; 5XCmax): 0 | State 3 respiration driven by succinate at 5XCmax ([1]; 5XCmax): 0 | State 4 respiration driven by glutamate/malate at 5XCmax ([1]; 5XCmax): 0 | State 4 respiration driven by succinate at 5XCmax ([1]; 5XCmax): 0 | State 3 respiration driven by glutamate/malate at 10XCmax ([1]; 10XCmax): 0 | State 3 respiration driven by succinate at 10XCmax ([1]; 10XCmax): 0 | State 4 respiration driven by glutamate/malate at 10XCmax ([1]; 10XCmax): 0 | State 4 respiration driven by succinate at 10XCmax ([1]; 10XCmax): 0 | State 3 respiration driven by glutamate/malate at 20XCmax ([1]; 20XCmax): 0 | State 3 respiration driven by succinate at 20XCmax ([1]; 20XCmax): 0 | State 4 respiration driven by glutamate/malate at 20XCmax ([1]; 20XCmax): 0 | State 4 respiration driven by succinate at 20XCmax ([1]; 20XCmax): 0 | State 3 respiration driven by glutamate/malate at 30XCmax ([1]; 30XCmax): 0 | State 3 respiration driven by succinate at 30XCmax ([1]; 30XCmax): 0 | State 4 respiration driven by glutamate/malate at 30XCmax ([1]; 30XCmax): 0 | State 4 respiration driven by succinate at 30XCmax ([1]; 30XCmax): 0 | State 3 respiration driven by glutamate/malate at 50XCmax ([1]; 50XCmax): 0 | State 3 respiration driven by succinate at 50XCmax ([1]; 50XCmax): 0 | State 4 respiration driven by glutamate/malate at 50XCmax ([1]; 50XCmax): 0 | State 4 respiration driven by succinate at 50XCmax ([1]; 50XCmax): 0 | State 3 respiration driven by glutamate/malate at 100XCmax ([1]; 100XCmax): 0 | State 3 respiration driven by succinate at 100XCmax ([1]; 100XCmax): 0 | State 4 respiration driven by glutamate/malate at 100XCmax ([1]; 100XCmax): 0 | State 4 respiration driven by succinate at 100XCmax ([1]; 100XCmax): 0 | RCC I at 10XCmax [2]: 0 | RCC II at 1.0XCmax ([3]; 1.0XCmax): 0 | RCC II at 2.5XCmax ([3]; 2.5XCmax): 0 | RCC II at 5XCmax ([3]; 5XCmax): 0 | RCC II at 10XCmax ([3]; 10XCmax): 0 | RCC II at 20XCmax ([3]; 20XCmax): 0 | RCC II at 30XCmax ([3]; 30XCmax): 0 | RCC II at 50XCmax ([3]; 50XCmax): 0 | RCC II at 100XCmax ([3]; 100XCmax): 0 | RCC IV at 50XCmax [4]: 0 | RCC V at 5XCmax ([5]; 5XCmax): 0 | RCC V at 50XCmax ([5]; 50XCmax): 0 | MMP measured by Rhodamine 123 at 1XCmax ([6]; 1XCmax): 0 | MMP measured by Rhodamine 123 at 2.5XCmax ([6]; 2.5XCmax): 0 | MMP measured by Rhodamine 123 at 5XCmax ([6]; 5XCmax): 0 | MMP measured by Rhodamine 123 at 10XCmax ([6]; 10XCmax): 0 | MMP measured by Rhodamine 123 at 20XCmax ([6]; 20XCmax): 0 | MMP measured by Rhodamine 123 at 30XCmax ([6]; 30XCmax): 0 | MMP measured by Rhodamine 123 at 50XCmax ([6]; 50XCmax): 0 | MMP measured by Rhodamine 123 at 100XCmax ([6]; 100XCmax): 0 | Swelling 1XCmax ([7]; 1XCmax): 0 | Swelling 2.5XCmax ([7]; 2.5XCmax): 0 | Swelling 5XCmax ([7]; 5XCmax): 0 | Swelling 10XCmax ([7]; 10XCmax): 0 | Swelling 20XCmax ([7]; 20XCmax): 0 | Swelling 30XCmax ([7]; 30XCmax): 0 | Swelling 50XCmax ([7]; 50XCmax): 0 | Swelling 100XCmax ([7]; 100XCmax): 0 | Cytochrome c release 1XCmax ([8]; 1XCmax): 0 | Cytochrome c release 2.5XCmax ([8]; 2.5XCmax): 0 | Cytochrome c release 5XCmax ([8]; 5XCmax): 0 | Cytochrome c release 10XCmax ([8]; 10XCmax): 0 | Cytochrome c release 20XCmax ([8]; 20XCmax): 0 | Cytochrome c release 30XCmax ([8]; 30XCmax): 0 | Cytochrome c release 50XCmax ([8]; 50XCmax): 0 | Cytochrome c release 100XCmax ([8]; 100XCmax): 0 | Cmax [9]: 0.51 µM | DILI potential (based on labeling) ([10]; 1 DILI positive, 0 negative according to labeling, ref product labeling): 1 | Labeling for DILI ([10]; BBW: black box warning, W&P: Warnings and Precautions, ref product labeling): W&P: ALT↑ | labeling for DILI ([10]; W&P warnings and precautions, BBW black box warnings, ref FDA product labeling): W&P: ALT↑/monitoring | DILI potential (based on labeling) ([10]; ref FDA product labeling): 1
